Assay results: the supplement of paper PMC10331698
± gives the standard deviation of the averaged measurements.

Key:
Assay in all cases: level (log10 ratio to DMSO vehicle control); higher = higher biomarker level / cell amount than vehicle control
Conditions in all cases: in DMSO
[1] = compound: FC(F)(F)C(F)(F)C(F)(F)C(F)(F)C(F)(F)C(F)(F)CC1CO1 [3-(Perfluorohexyl)-1,2-epoxypropane]
Experimental: (§1)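 BioMAP Diversity Plus panel of 12 human primary cell co-culture systems (3C, 4H, LPS, SAg, BT, BF4T, BE3C, CASM3C, HDF3CGF, KF3CT, MyoF, Mphg). Compounds were added 1 h before stimulation and left for 24 h (MyoF 48 h; BT 72 h for soluble read-outs or 6 d for IgG). Biomarkers were read by ELISA, cytotoxicity by SRB, PBMC viability and proliferation by Alamar Blue. Each well value was divided by the mean of 8 DMSO control wells on the same plate and log10 transformed; duplicate blinded samples were tested at 4 concentrations.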

[2] = compound: O=C(O)C(F)(F)C(F)(F)C(F)(F)C(F)(F)C(F)(F)C(F)(F)C(F)(F)C(F)(F)C(F)(F)C(F)F [11-H-Perfluoroundecanoic acid]
Experimental: as §1

[3] = compound: O=S(=O)(O)C(F)(F)C(F)(F)C(F)(F)C(F)(F)C(F)(F)C(F)(F)C(F)(F)C(F)(F)C(F)(F)C(F)(F)F [Sodium perfluorodecanesulfonate]
Experimental: as §1

[4] = compound: NC(=O)C(F)(F)C(F)(F)C(F)(F)C(F)F
Experimental: as §1

[5] = compound: C=C(C)C(=O)OCCC(F)(F)C(F)(F)C(F)(F)C(F)(F)C(F)(F)C(F)(F)F [6:2 Fluorotelomer methacrylate]
Experimental: as §1

Test System: 4H:SRB
- level (log10) ([1]; 6700 nM): 0.007 ± 0.0028
- level (log10) ([1]; 20000 nM): -0.003 ± 0.0057
- level (log10) ([1]; 60000 nM): 0.015 ± 0.023
- level (log10) ([2]; 6700 nM): 0.0145 ± 0.0092
- level (log10) ([2]; 20000 nM): 0.0105 ± 0.018
- level (log10) ([3]; 1500 nM): -0.003 ± 0.0042
- level (log10) ([3]; 4400 nM): -0.004 ± 0.0071
- level (log10) ([3]; 13000 nM): -0.017 ± 0.0014
- level (log10) ([3]; 40000 nM): -0.023 ± 0.0099
- level (log10) ([4]; 6700 nM): -0.0195 ± 0.0078
- level (log10) ([4]; 20000 nM): -0.0055 ± 0.005
- level (log10) ([4]; 60000 nM): -0.017 ± 0.021
- level (log10) ([5]; 6700 nM): -0.0005 ± 0.0035
- level (log10) ([5]; 20000 nM): 0.0005 ± 0.016
- level (log10) ([5]; 60000 nM): 0.008 ± 0.014

Test System: KF3CT:SRB
- level (log10) ([1]; 6700 nM): -0.0075 ± 0.0021
- level (log10) ([1]; 20000 nM): -0.008
- level (log10) ([1]; 60000 nM): 0 ± 0.013
- level (log10) ([2]; 6700 nM): -0.01 ± 0.017
- level (log10) ([2]; 20000 nM): -0.012 ± 0.0014
- level (log10) ([3]; 1500 nM): 0.006 ± 0.011
- level (log10) ([3]; 4400 nM): 0 ± 0.0042
- level (log10) ([3]; 13000 nM): -0.003 ± 0.0028
- level (log10) ([3]; 40000 nM): 0.0095 ± 0.016
- level (log10) ([4]; 6700 nM): -0.006 ± 0.0028
- level (log10) ([4]; 20000 nM): -0.0005 ± 0.0064
- level (log10) ([4]; 60000 nM): -0.002 ± 0.013
- level (log10) ([5]; 6700 nM): -0.005 ± 0.0085
- level (log10) ([5]; 20000 nM): 0
- level (log10) ([5]; 60000 nM): -0.001 ± 0.0057

Test System: HDF3CGF:TIMP-1
- level (log10) ([1]; 6700 nM): 0.0085 ± 0.025
- level (log10) ([1]; 20000 nM): 0.0265 ± 0.025
- level (log10) ([1]; 60000 nM): 0.0305 ± 0.012
- level (log10) ([2]; 6700 nM): 0.0005 ± 0.096
- level (log10) ([2]; 20000 nM): 0.1 ± 0.072
- level (log10) ([3]; 1500 nM): -0.0355 ± 0.04
- level (log10) ([3]; 4400 nM): 0.0065 ± 0.0035
- level (log10) ([3]; 13000 nM): 0.0265 ± 0.042
- level (log10) ([3]; 40000 nM): 0.156 ± 0.016
- level (log10) ([4]; 6700 nM): -0.0005 ± 0.0064
- level (log10) ([4]; 20000 nM): -0.0095 ± 0.043
- level (log10) ([4]; 60000 nM): 0.0045 ± 0.039
- level (log10) ([5]; 6700 nM): -0.049 ± 0.028
- level (log10) ([5]; 20000 nM): -0.0115 ± 0.0078
- level (log10) ([5]; 60000 nM): -0.0055 ± 0.0035

Test System: CASM3C:PAI-I
- level (log10) ([1]; 6700 nM): 0.0055 ± 0.005
- level (log10) ([1]; 20000 nM): 0.002 ± 0.0085
- level (log10) ([1]; 60000 nM): 0.017 ± 0.0042
- level (log10) ([2]; 6700 nM): 0.001 ± 0.0057
- level (log10) ([2]; 20000 nM): 0.006 ± 0.0028
- level (log10) ([3]; 1500 nM): -0.001 ± 0.0028
- level (log10) ([3]; 4400 nM): -0.0165 ± 0.0064
- level (log10) ([3]; 13000 nM): 0.009 ± 0.0057
- level (log10) ([3]; 40000 nM): -0.0055 ± 0.021
- level (log10) ([4]; 6700 nM): -0.005 ± 0.021
- level (log10) ([4]; 20000 nM): -0.003 ± 0.0085
- level (log10) ([4]; 60000 nM): -0.008 ± 0.0099
- level (log10) ([5]; 6700 nM): -0.01 ± 0.013
- level (log10) ([5]; 20000 nM): -0.0055 ± 0.0021
- level (log10) ([5]; 60000 nM): 0.007 ± 0.013

Test System: lMphg:IL-1alpha
- level (log10) ([1]; 6700 nM): -0.0115 ± 0.046
- level (log10) ([1]; 20000 nM): -0.013 ± 0.021
- level (log10) ([1]; 60000 nM): -0.0015 ± 0.011
- level (log10) ([2]; 6700 nM): -0.024 ± 0.024
- level (log10) ([2]; 20000 nM): -0.008 ± 0.0014
- level (log10) ([3]; 1500 nM): 0.0345 ± 0.021
- level (log10) ([3]; 4400 nM): -0.002 ± 0.028
- level (log10) ([3]; 13000 nM): 0.032 ± 0.013
- level (log10) ([3]; 40000 nM): 0.0505 ± 0.03
- level (log10) ([4]; 6700 nM): -0.0425 ± 0.023
- level (log10) ([4]; 20000 nM): -0.0465 ± 0.00071
- level (log10) ([4]; 60000 nM): 0.0365 ± 0.047
- level (log10) ([5]; 6700 nM): -0.0445 ± 0.076
- level (log10) ([5]; 20000 nM): -0.03 ± 0.02
- level (log10) ([5]; 60000 nM): -0.0305 ± 0.069

Test System: KF3CT:MMP-9
- level (log10) ([1]; 6700 nM): -0.014 ± 0.0042
- level (log10) ([1]; 20000 nM): -0.0225 ± 0.00071
- level (log10) ([1]; 60000 nM): -0.0155 ± 0.025
- level (log10) ([2]; 6700 nM): -0.0735 ± 0.011
- level (log10) ([2]; 20000 nM): -0.298 ± 0.0071
- level (log10) ([3]; 1500 nM): -0.01 ± 0.0085
- level (log10) ([3]; 4400 nM): -0.0325 ± 0.0078
- level (log10) ([3]; 13000 nM): -0.0735 ± 0.012
- level (log10) ([3]; 40000 nM): -0.139 ± 0.036
- level (log10) ([4]; 6700 nM): -0.0095 ± 0.013
- level (log10) ([4]; 20000 nM): 0.002 ± 0.025
- level (log10) ([4]; 60000 nM): 0.0125 ± 0.023
- level (log10) ([5]; 6700 nM): -0.0275 ± 0.056
- level (log10) ([5]; 20000 nM): -0.0145 ± 0.03
- level (log10) ([5]; 60000 nM): -0.009 ± 0.0042

Test System: BE3C:MMP-9
- level (log10) ([1]; 6700 nM): -0.036 ± 0.0042
- level (log10) ([1]; 20000 nM): -0.036
- level (log10) ([1]; 60000 nM): -0.004 ± 0.042
- level (log10) ([2]; 6700 nM): -0.058 ± 0.04
- level (log10) ([2]; 20000 nM): -0.277 ± 0.049
- level (log10) ([3]; 1500 nM): -0.0125 ± 0.04
- level (log10) ([3]; 4400 nM): 0.0105 ± 0.005
- level (log10) ([3]; 13000 nM): -0.0785 ± 0.013
- level (log10) ([3]; 40000 nM): -0.302 ± 0.041
- level (log10) ([4]; 6700 nM): -0.007 ± 0.0014
- level (log10) ([4]; 20000 nM): -0.0045 ± 0.0092
- level (log10) ([4]; 60000 nM): 0.0095 ± 0.023
- level (log10) ([5]; 6700 nM): 0.014 ± 0.0071
- level (log10) ([5]; 20000 nM): 0.015 ± 0.0042
- level (log10) ([5]; 60000 nM): 0.025 ± 0.011

Test System: MyoF:TIMP-1
- level (log10) ([1]; 6700 nM): -0.0295 ± 0.046
- level (log10) ([1]; 20000 nM): -0.028 ± 0.027
- level (log10) ([1]; 60000 nM): 0.033 ± 0.03
- level (log10) ([2]; 6700 nM): 0.0255 ± 0.029
- level (log10) ([2]; 20000 nM): 0.063 ± 0.0057
- level (log10) ([3]; 1500 nM): -0.037 ± 0.014
- level (log10) ([3]; 4400 nM): -0.0445 ± 0.016
- level (log10) ([3]; 13000 nM): -0.0415 ± 0.04
- level (log10) ([3]; 40000 nM): -0.0725 ± 0.044
- level (log10) ([4]; 6700 nM): -0.031 ± 0.011
- level (log10) ([4]; 20000 nM): -0.024 ± 0.023
- level (log10) ([4]; 60000 nM): -0.0505 ± 0.00071
- level (log10) ([5]; 6700 nM): -0.036 ± 0.062
- level (log10) ([5]; 20000 nM): -0.0135 ± 0.066
- level (log10) ([5]; 60000 nM): -0.017 ± 0.041

Test System: HDF3CGF:M-CSF
- level (log10) ([1]; 6700 nM): 0 ± 0.014
- level (log10) ([1]; 20000 nM): -0.002 ± 0.0042
- level (log10) ([1]; 60000 nM): -0.019 ± 0.0085
- level (log10) ([2]; 6700 nM): -0.0345 ± 0.005
- level (log10) ([2]; 20000 nM): -0.108 ± 0.029
- level (log10) ([3]; 1500 nM): 0.0325 ± 0.0078
- level (log10) ([3]; 4400 nM): 0.009 ± 0.018
- level (log10) ([3]; 13000 nM): 0.037 ± 0.035
- level (log10) ([3]; 40000 nM): 0.0405 ± 0.0035
- level (log10) ([4]; 6700 nM): -0.0065 ± 0.0078
- level (log10) ([4]; 20000 nM): -0.008 ± 0.0014
- level (log10) ([4]; 60000 nM): 0.017 ± 0.031
- level (log10) ([5]; 6700 nM): -0.02 ± 0.0057
- level (log10) ([5]; 20000 nM): -0.022 ± 0.0099
- level (log10) ([5]; 60000 nM): -0.029 ± 0.0028
